Measured values as given in US20170107207A1, “AMINOPYRAZOLONE DERIVATIVE” (DAIICHI SANKYO COMPANY, LIMITED, priority 2014, published 2017).

What was measured:
TIP48/TIP49 complex = target: T1, TIP48/TIP49 complex (Homo sapiens, UniProt Q9Y230+Q9Y265); assay: ATPase assay of TIP48/TIP49 complex (ADP-Glo); type: biochemical; conditions: concentration at which the ATPase activity was inhibited by 50%
T1 construct: made in house; host or cells: E. coli
Source text: The ATPase activity of the TIP48/TIP49 complex can be measured by use of an ATPase assay described below in Test Examples 1 and 2. The ATPase activity of the TIP48/TIP49 complex can be measured, as described below in the Test Examples, for example, by using recombinant human TIP48 and TIP49 proteins (hereinafter, referred to as rTIP48 and rTIP49) and ATP in the presence or absence of a test compound and measuring the amount of ADP formed through hydrolysis by the ATPase activity of the TIP48/TIP49 complex, using ADP-Glo. Alternatively, the ATPase activity of the TIP48/TIP49 complex can be measured by a method described in, for example, J. Mol. Biol. 366, 172-179 (2007).
An ATPase assay of a TIP48/TIP49 complex was conducted using rTIP48 and rTIP49. Human TIP48 and TIP49 DNAs were purchased from Open Biosystems. Human TIP48 and TIP49 cDNAs cloned by PCR using the purchased DNAs were each integrated into plasmids for expression in E. coli and expressed in E. coli to obtain rTIP48 and rTIP49.
A test compound was dissolved at 10 mM using DMSO. The solution was diluted to 10 concentrations as 4-fold serial dilutions from 10 mM using DMSO.
A 2×assay buffer (100 mM Tris-HCl, pH 7.5, 100 mM NaCl, 40 mM MgCl2, 2 mM DTT, 20 μM ATP, and 0.2 mg/mL BSA) was dispensed at 24.5 μL/well to a 384-well assay plate.
Test compound solutions were dispensed thereto at 1 μL/well. Subsequently, the solution in each well was mixed using a plate mixer.
rTIP48 and rTIP49 were diluted to a concentration of 50 μg/mL using sterilized water. The diluted solution was dispensed at 24.5 μL/well to the 384-well assay plate. Subsequently, the solution in each well was mixed using a plate mixer (final concentration: 24.5 μg/mL) (concentration of each test compound solution: 200 μM, 50 μM, 12.5 μM, 3.12 μM, 0.78 μM, 0.20 μM, 0.049 μM, 0.012 μM, 0.003 μM, and 0.0007 μM; DMSO concentration: 2%).
After the mixing using the plate mixer, the assay plate was left standing at room temperature for 1.5 hours.
5 μL of the solution in each well was transferred to a white assay plate, and ADP-Glo Reagent from ADP-Glo Kinase Assay (Promega Corp., catalog No. V9101) was dispensed thereto at 5 μL/well. After completion of the reaction, the plate was left standing at room temperature for 40 minutes. Kinase Detection Reagent was further dispensed thereto at 5 μL/well, and the plate was left standing at room temperature for 30 minutes. Then, luminescence intensity was measured using a plate reader.
The ATPase inhibitory activity was calculated according to the expression given below.
The luminescence intensity of a well supplemented with the test compound and the TIP48/TIP49 complex was defined as A. The luminescence intensity of a well supplemented with only the TIP48/TIP49 complex was defined as B. The luminescence intensity of a well supplemented with neither the test compound nor the TIP48/TIP49 complex was defined as C. The ratio between the test compound-supplemented group and the test compound-nonsupplemented group (T/C value) was determined according to the following calculation expression:
The dose-response curve was calculated using GraphPad Prism 4 from the concentration of each of the serially diluted test compounds and the ATPase inhibitory activity (%) at this concentration.

[1] = system: human lymphoma cell line RAMOS cells; assay: Cell growth inhibition test using RAMOS cell, ATP assay (CellTiter-Glo); type: cell-based; conditions: cultured 3 days, 50% growth inhibition concentration
Experimental: A cell growth inhibition test was carried out by treating human lymphoma cell line RAMOS cells with a test compound for a given period and then counting the number of viable cells by MTT assay or CellTiter-Glo Luminescent Cell Viability Assay (manufactured by Promega Corp.; hereinafter, referred to as ATP assay).
RAMOS cells were inoculated at 4000 cells/40 μL/well to a 384-well plate containing the compound prepared in advance at predetermined concentrations. The cells thus inoculated were cultured at 37° C. for 3 days under 5% CO2. In order to measure a cell survival rate, CellTiter-Glo Reagent was added in an amount corresponding to 1/4 of the amount of the culture solution at the day of cell inoculation and at the final culture date and stirred at room temperature for 2 minutes. Then, luminescence intensity was measured using a plate reader. The cell survival rate was calculated according to the expression given below.
The number of viable cells and luminescence intensity have been confirmed to correlate with each other. Therefore, the rate of cell growth was calculated according to the following expression: Rate of cell growth (T/C %) of a test compound-supplemented well=100×[(B−C)/(A−C)] wherein A represents the luminescence intensity (final culture date) of a test compound-free well; B represents the luminescence intensity (final culture date) of a test compound-containing well; and C represents the luminescence intensity (day of cell inoculation) of a well at the start of contact of the cells with the test compound.
T/C % at each concentration of the test compound was determined. The concentration at which the test compound offered 50% growth rate was calculated as a GI50 value from the growth rates at two points interpolating 50% and the concentrations, and is shown in Table 56.

T1 sequence (Q9Y230 whole entry): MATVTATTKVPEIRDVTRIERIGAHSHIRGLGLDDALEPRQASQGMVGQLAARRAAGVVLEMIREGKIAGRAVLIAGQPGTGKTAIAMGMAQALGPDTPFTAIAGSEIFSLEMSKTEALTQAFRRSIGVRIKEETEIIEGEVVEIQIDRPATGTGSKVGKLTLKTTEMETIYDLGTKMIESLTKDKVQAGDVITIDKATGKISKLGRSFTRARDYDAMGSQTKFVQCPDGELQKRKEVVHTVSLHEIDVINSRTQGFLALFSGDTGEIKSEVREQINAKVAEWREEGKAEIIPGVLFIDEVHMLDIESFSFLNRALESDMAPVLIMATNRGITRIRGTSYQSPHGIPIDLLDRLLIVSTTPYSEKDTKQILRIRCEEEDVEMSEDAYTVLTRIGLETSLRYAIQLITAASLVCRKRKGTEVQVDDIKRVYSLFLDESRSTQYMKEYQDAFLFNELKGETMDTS
T1 sequence (Q9Y265 whole entry): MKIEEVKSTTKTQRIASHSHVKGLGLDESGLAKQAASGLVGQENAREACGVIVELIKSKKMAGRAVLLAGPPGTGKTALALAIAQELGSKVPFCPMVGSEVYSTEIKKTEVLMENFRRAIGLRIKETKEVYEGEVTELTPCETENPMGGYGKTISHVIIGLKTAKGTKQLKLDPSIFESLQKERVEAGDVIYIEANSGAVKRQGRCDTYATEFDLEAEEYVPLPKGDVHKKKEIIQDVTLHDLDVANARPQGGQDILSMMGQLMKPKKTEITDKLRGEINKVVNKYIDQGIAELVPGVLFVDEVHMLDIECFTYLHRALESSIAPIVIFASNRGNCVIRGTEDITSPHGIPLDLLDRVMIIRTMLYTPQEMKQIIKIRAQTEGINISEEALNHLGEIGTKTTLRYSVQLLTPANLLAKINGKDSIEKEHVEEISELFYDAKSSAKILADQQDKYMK

## CCOc1cc(F)c(Cl)cc1C(=O)NCC(C)(C)CC(=O)Nc1c([C@H](C)OC)n(C)n(-c2ccccc2)c1=O [Example 123, 5-Chloro-2-ethoxy-4-fluoro-N-(4-{[5-((1S)-methoxyethyl)-1-methyl-3-oxo-2-phenyl-2,3-dihydro-1H-pyrazol-4-yl]amino}-2,2-dimethyl-4-oxobutyl)benzamide]
TIP48/TIP49 complex
  IC50: 39 nM
[1]; Homo sapiens, Ramos, 72 h
  GI50: 120 nM

## CCOc1ccc(Cl)cc1C(=O)NCC(C)(C)CC(=O)Nc1c(C(C)C(C)(C)N(C)C)n(C)n(-c2ccccc2)c1=O (centres unmarked) [Example 87, 5-Chloro-N-[4-({5-[2-(dimethylamino)-1,2-dimethylpropyl]-1-methyl-3-oxo-2-phenyl-2,3-dihydro-1H-pyrazol-4-yl}amino)-2,2-dimethyl-4-oxobutyl]-2-ethoxybenzamide]
TIP48/TIP49 complex
  IC50: 52 nM
[1]; Homo sapiens, Ramos, 72 h
  GI50: 120 nM

## CCOc1ccc(Cl)cc1C(=O)NCC(C)(C)CC(=O)Nc1c(CC(C)(C)NC)n(C)n(-c2ccccc2)c1=O [Example 59, 5-Chloro-N-[2,2-dimethyl-4-({1-methyl-5-[2-methyl-2-(methylamino)propyl]-3-oxo-2-phenyl-2,3-dihydro-1H-pyrazol-4-yl}amino)-4-oxobutyl]-2-ethoxybenzamide]
TIP48/TIP49 complex
  IC50: 34 nM
[1]; Homo sapiens, Ramos, 72 h
  GI50: 150 nM

## CCOc1ccc(Cl)cc1C(=O)NCC(CF)(CF)CC(=O)Nc1c(COC)n(C)n(-c2ccccc2)c1=O [Example 148, N-(2,2-Bis(fluoromethyl)-4-{[5-(methoxymethyl)-1-methyl-3-oxo-2-phenyl-2,3-dihydro-1H-pyrazol-4-yl]amino}-4-oxobutyl)-5-chloro-2-ethoxybenzamide]
TIP48/TIP49 complex
  IC50: 83 nM
[1]; Homo sapiens, Ramos, 72 h
  GI50: 230 nM

## CCOc1ncc(Cl)cc1C(=O)NCC(C)(C)CC(=O)Nc1c(C(CN(C)C)OC)n(C)n(-c2ccccc2)c1=O (single isomer, unassigned; (+)) [Example 83, (+)-5-Chloro-N-[4-({5-[2-(dimethylamino)-1-methoxyethyl]-1-methyl-3-oxo-2-phenyl-2,3-dihydro-1H-pyrazol-4-yl}amino)-2,2-dimethyl-4-oxobutyl]-2-ethoxypyridine-3-carboxamide]
TIP48/TIP49 complex
  IC50: 65 nM
[1]
  GI50: 490 nM

## CCOc1ncc(Br)cc1C(=O)NCC(C)(C)CC(=O)Nc1c(CC(C)(C)NC)n(C)n(-c2ccccc2)c1=O [Example 60, 5-Bromo-N-[2,2-dimethyl-4-({1-methyl-5-[2-methyl-2-(methylamino)propyl]-3-oxo-2-phenyl-2,3-dihydro-1H-pyrazol-4-yl}amino)-4-oxobutyl]-2-ethoxypyridine-3-carboxamide]
TIP48/TIP49 complex
  IC50: 94 nM
[1]; Homo sapiens, Ramos, 72 h
  GI50: 370 nM

## CCOc1cc(F)c(Cl)cc1C(=O)NCC(C)(C)CC(=O)Nc1c(CCN(C)CC(F)(F)F)n(C)n(-c2ccccc2)c1=O [Example 38, 5-Chloro-N-{2,2-dimethyl-4-[(1-methyl-5-{2-[methyl(2,2,2-trifluoroethyl)amino]ethyl}-3-oxo-2-phenyl-2,3-dihydro-1H-pyrazol-4-yl)amino]-4-oxobutyl}-2-ethoxy-4-fluorobenzamide]
TIP48/TIP49 complex
  IC50: 77 nM
[1]; Homo sapiens, Ramos, 72 h
  GI50: 210 nM

## CCOc1ncc(Br)cc1C(=O)NCC(C)(C)CC(=O)Nc1c(C(C)CN(C)C)n(C)n(-c2ccccc2)c1=O (centres unmarked) [Example 74, 5-Bromo-N-[4-({5-[2-(dimethylamino)-1-methylethyl]-1-methyl-3-oxo-2-phenyl-2,3-dihydro-1H-pyrazol-4-yl}amino)-2,2-dimethyl-4-oxobutyl]-2-ethoxypyridine-3-carboxamide]
TIP48/TIP49 complex
  IC50: 180 nM
[1]; Homo sapiens, Ramos, 72 h
  GI50: 470 nM

## CCOc1cc(F)c(Cl)cc1C(=O)NCC(C)(C)CC(=O)Nc1c(C[C@H](C)N(C)C)n(C)n(-c2ccccc2)c1=O [Example 52, 5-Chloro-N-[4-({5-[(2S)-2-(dimethylamino)propyl]-1-methyl-3-oxo-2-phenyl-2,3-dihydro-1H-pyrazol-4-yl}amino)-2,2-dimethyl-4-oxobutyl]-2-ethoxy-4-fluorobenzamide]
TIP48/TIP49 complex
  IC50: 36 nM
[1]; Homo sapiens, Ramos, 72 h
  GI50: 120 nM

## CNC(C)(C)Cc1c(NC(=O)CC(C)(C)CNC(=O)c2cc(Cl)cc3cc(C)oc23)c(=O)n(-c2ccccc2)n1C [Example 61, 5-Chloro-N-[2,2-dimethyl-4-({1-methyl-5-[2-methyl-2-(methylamino)propyl]-3-oxo-2-phenyl-2,3-dihydro-1H-pyrazol-4-yl}amino)-4-oxobutyl]-2-methylbenzofuran-7-carboxamide]
TIP48/TIP49 complex
  IC50: 52 nM
[1]; Homo sapiens, Ramos, 72 h
  GI50: 390 nM

## COCc1cc2cc(Cl)cc(C(=O)NCC(C)(C)CC(=O)Nc3c(CCN(C)C)n(C)n(-c4ccccc4)c3=O)c2o1 [Example 15, 5-Chloro-N-[4-({5-[2-(dimethylamino)ethyl]-1-methyl-3-oxo-2-phenyl-2,3-dihydro-1H-pyrazol-4-yl}amino)-2,2-dimethyl-4-oxobutyl]-2-(methoxymethyl)benzofuran-7-carboxamide]
TIP48/TIP49 complex
  IC50: 76 nM
[1]; Homo sapiens, Ramos, 72 h
  GI50: 570 nM

## CCOc1ccc(Cl)cc1C(=O)NCC(C)(C)CC(=O)Nc1c(CCN(C)C)n(C)n(-c2cccc(Cl)n2)c1=O [Example 47, 5-Chloro-N-(4-{[1-(6-chloro-2-pyridyl)-3-(2-dimethylamino)ethyl]-2-methyl-5-oxopyrazol-4-yl}amino-2,2-dimethyl-4-oxobutyl)-2-ethoxybenzamide]
TIP48/TIP49 complex
  IC50: 37 nM
[1]; Homo sapiens, Ramos, 72 h
  GI50: 250 nM

## CCc1c(NC(=O)CC(C)(C)CNC(=O)c2cc(Cl)ccc2OCOC)c(=O)n(-c2ccccc2)n1C [Example 127, 5-Chloro-N-{4-[(5-ethyl-1-methyl-3-oxo-2-phenyl-2,3-dihydro-1H-pyrazol-4-yl)amino]-2,2-dimethyl-4-oxobutyl}-2-(methoxymethoxy)benzamide]
TIP48/TIP49 complex
  IC50: 55 nM
[1]; Homo sapiens, Ramos, 72 h
  GI50: 130 nM

## CCOc1ccc(Cl)cc1C(=O)NCC(C)(C)CC(=O)Nc1c(C(C)OC)n(C)n(-c2ccccc2)c1=O (centres unmarked) [Example 125, 5-Chloro-2-ethoxy-N-(4-{[5-(1-methoxyethyl)-1-methyl-3-oxo-2-phenyl-2,3-dihydro-1H-pyrazol-4-yl]amino}-2,2-dimethyl-4-oxobutyl)benzamide]
TIP48/TIP49 complex
  IC50: 36 nM
[1]; Homo sapiens, Ramos, 72 h
  GI50: 140 nM

## COCOc1cc(F)c(Cl)cc1C(=O)NCC(C)(C)CC(=O)Nc1c(COC)n(C)n(-c2ccccc2)c1=O [Example 116, 5-Chloro-4-fluoro-2-(methoxymethoxy)-N-(4-{[5-(methoxymethyl)-1-methyl-3-oxo-2-phenyl-2,3-dihydro-1H-pyrazol-4-yl]amino}-2,2-dimethyl-4-oxobutyl)benzamide]
TIP48/TIP49 complex
  IC50: 14 nM
[1]; Homo sapiens, Ramos, 72 h
  GI50: 140 nM

## CCOc1ccc(Cl)cc1C(=O)NCC(C)(C)C(F)C(=O)Nc1c(CCN(C)C)n(C)n(-c2ccccc2)c1=O (centres unmarked) [Example 91, 5-Chloro-N-[4-({5-[2-(dimethylamino)ethyl]-1-methyl-3-oxo-2-phenyl-2,3-dihydro-1H-pyrazol-4-yl}amino)-3-fluoro-2,2-dimethyl-4-oxobutyl]-2-ethoxybenzamide]
TIP48/TIP49 complex
  IC50: 110 nM
[1]; Homo sapiens, Ramos, 72 h
  GI50: 180 nM
